{"source": "patent US6432671B1", "about": "(priority 1996, dated 2002)", "test_system": "tryparedoxin I", "assay_type": "biochemical, Crithidia fasciculata", "data": [{"compound": "CCN1C(=O)C=CC1=O", "note": "[NEM, N-ethylmaleimide]", "values": [{"measurement": "residual activity [%]", "result": "24 ± 5", "unit": "%"}]}]}
